Measured values as given in article PMC9965539, “Adverse Toxic Effects of Tyrosine Kinase Inhibitors on Non-Target Zebrafish Liver (ZFL) Cells” (International Journal of Molecular Sciences, 2023).

Legend:
[1] = tested on: zebrafish liver cells (ZFL); test: Micronucleus detection by flow cytometry; assay type: cell-based; conditions: 72 h; for MNi frequency: non-cytotoxic concentrations
Description: ZFL cells were seeded onto 24-well culture plates (Nunclon) at a density of 35,000 cells per well for 24 h. […] Etoposide (0.17 μM and 0.68 μM) was used as a positive control. After 72 h, cells were placed on ice for 20 min, and subsequently a 0.05 mg/mL EMA solution was added to each well. The cells were placed on ice for 30 min and exposed to light for photoactivation of the EMA fluorochrome. Afterwards, cells were washed and resuspended in lysis solution (0.584 mg/mL NaCl, 1 mg/mL sodium citrate, and 0.3 μL/mL Triton X-100) containing 0.2 μM SYTOX Green and 0.25 mg/mL RNAse A, and incubated for 1 h in the dark at 37 °C. After incubation, lysis solution (85.6 mg/mL sucrose and 15 mg/mL citric acid) containing 0.2 μM SYTOX Green was added to the wells of the plate and incubated for a further 30 min at room temperature in the dark. Cells were analyzed on the same day using MACSQuant Analyzer 10 flow cytometer. MASCQuantify Software 2.11. was used to analyze each sample, and the percentage of micronuclei was determined after the acquisition of a total of 20,000 gated nuclei events, excluding EMA-positive events. One-way ANOVA with post hoc multiple comparison Dunett’s test using GraphPad Prism V6 (GraphPad Software, Carlsbad, CA, USA) was carried out. * p < 0.05 and *** p < 0.0001 were considered statistically significant.

H520 and H1975 cells = tested on: H520 and H1975 cells; design: method as in PMID 24447935; conditions: highest concentration tested; cited from earlier work
[2] = tested on: zebrafish liver cells (ZFL); test: Propidium iodide live/dead staining by flow cytometry; assay type: cell-based; conditions: for percentage of PI negative cells: 72 h exposure, low concentrations
Description: Benzo[a]pyrene (50 μM), an indirect-acting genotoxic agent which requires metabolic activation for its genotoxic effects, and etoposide (0.17 μM), a direct-acting genotoxic agent, were selected as positive controls. After 72 h, floating and adherent cells were collected, resuspended in ice-cold 1x PBS, and immediately analyzed. Propidium iodide (PI) at a final concentration of 1 μg/mL was added to the cells 5 min before the start of measurements using the MACSQuant Analyzer 10 flow cytometer (Miltenyi Biotech, Bergisch Gladbach, Germany). MASCQuantifiy software (Miltenyi Biotech, Bergisch Gladbach, Germany) was used to quantify PI negative and positive cells. The experiments were repeated three times independently. Statistical significance between the treated groups and control was determined by one-way ANOVA with post hoc multiple comparison Dunett’s test using GraphPad Prism V6 (GraphPad Software, La Jolla, CA, USA). * p < 0.05 was considered statistically significant.

Alium cepa = tested on: Alium cepa; design: method as in doi:10.1508/cytologia.86.195; conditions: dose-dependent; cited from earlier work
HepG2 and HepaRG cells = tested on: HepG2 and HepaRG cells; design: method as in PMID 28659801; conditions: 20 µM highest concentration tested; cited from earlier work
[3] = tested on: zebrafish liver cells (ZFL); test: MTS assay, viability of ZFL cells; assay type: cell-based; conditions: for viability of the ZFL cells: 24, 48, 72 h, dose- and time-dependent, ERL and NIL up to their maximum solubility; for cytotoxic effects in ZFL cells (MTS): concentrations up to 60 µM, up to 72 h exposure
Description: (§1) The viability of ZFL cells after 24, 48, and 72 h of exposure to TKIs was determined using the tetrazolium-based (MTS) assay (Cell Titer 96 AQueous Non-Radioactive Cell Proliferation Assay; Promega, Madison, WI, USA) as previously described by Novak et al.. Cells were seeded in 96-well microtiter plates (Corning Costar Corporation, New York, NY, USA) at a density of 7000 cells/well. […] Three independent experiments were performed, each with five replicates per treatment point. The statistical significance between the treated groups and the solvent control was determined by Student’s t-test using GraphPad Prism V6 (GraphPad Software, La Jolla, CA, USA). *** (p < 0.001)was considered statistically significant.

HepG2 cells = conditions: 24 h of exposure; cited from earlier work
[4] = tested on: zebrafish liver cells (ZFL); test: Cell cycle analysis with flow cytometry; assay type: cell-based; conditions: 72 h; for effect on cell cycle progression: concentration-dependent, parallel decrease in S-phase fraction
Description: ZFL cells were seeded onto T25 culture plates at a density of 450,000 cells for 24 h. […] The positive control was etoposide (0.17 μM), which is known to arrest cells in the G2/M phase of the cell cycle. After 72 h, cells were trypsinized (0.25% trypsin-EDTA) and washed with 1x PBS before fixation in 4% paraformaldehyde (PFA). For flow cytometric analysis, fixed cells were washed in cold 1x PBS and stained with Hoechst 33258 dye (diluted in 0.1% Triton X-100 1:500) as described by Stampar et al.. Flow cytometric measurements were performed using a MACSQuant Analyzer 10 and the experiment was repeated three times independently. Each time, 20,000 single cells were recorded per experimental point. The data obtained were analyzed using FlowJo V10 software (Becton Dickinson, Franklin Lakes, NJ, USA). Statistical analysis for cell cycle was performed by the two-way ANOVA with Fisher’s LSD test using GraphPad Prism V6 (GraphPad Software, La Jolla, CA, USA). * p < 0.05, ** (p < 0.01), *** (p < 0.001) were considered statistically significant.

[5] = tested on: human ovarian cancer cells (SKOV-3 cells); design: method as in Mak et al. 66; conditions: 10 µM, 72 h; ref Mak et al. 66; cited from earlier work
[6] = tested on: ovarian carcinoma A2780 cells; design: method as in PMID 28223694; conditions: up to 10 μM, 24 h; cited from earlier work
[7] = tested on: human lymphocytes or Chinese hamster ovary cells in vitro and rat bone marrow; conditions: ref 11 (REG), 69 (ERL), 59 (NIL); cited from earlier work
Huh-7 cells = conditions: 24 h; cited from earlier work
A549 cells = tested on: A549 cells; design: method as in Kryeziu et al. 65; conditions: 20 µM, 6 h exposure; ref Kryeziu et al. 65; cited from earlier work
H295R cells = tested on: H295R cells; design: method as in Silveira et al. 28; conditions: 10 µM; ref Silveira et al. 28; cited from earlier work
[8] = tested on: zebrafish liver cells (ZFL); test: Alkaline comet assay (DNA strand breaks); assay type: cell-based; conditions: 24 h of exposure, non-cytotoxic concentrations
Description: The induction of DNA strand breaks after TKI exposure was assessed by the comet assay according to Møller et al., with minor modifications. Briefly, ZFL cells were seeded at a density of 100,000 cells/well onto 12-well cell culture plates (Corning Costar Corporation, New York, NY, USA) and incubated for 24 h to attach. […] B(a)P (50 μM) was used as a positive control. After treatment, ZFL cells were trypsinized, collected, and centrifuged. Thirty μL of the cell suspension was mixed with 70 μL of 1% LMP agarose and placed on fully frosted slides pre-coated with 80 μL of 1% NMP agarose. Cells were then lysed for 1 h at 4 °C (2.5 M NaCl, 100 mM EDTA, 10 mM Tris, 1% Triton X-100, pH 10). DNA was subsequently denatured in electrophoresis buffer (1 mM EDTA, 300 mM NaOH, pH 13) for 20 min at 4 °C and slides were electrophoresed at 25 V (at 1 V/cm) for 20 min. Finally, nuclei were stained with GelRed (Biotium, Fremont, CA, USA). Images of 50 randomly selected nuclei per experimental point were acquired with the Eclipse 800 fluorescence microscope (Nikon, Tokyo, Japan) at 400× magnification using image analysis software (Comet Assay IV, Instem, UK). The statistical significance between control and treated groups was determined by one-way analysis of variance (ANOVA, Kruskal–Wallis) and Dunn’s multiple comparison test. * p < 0.05 was considered statistically significant.

[9] = tested on: human lymphoblastoid TK6 cells; design: method as in PMID 25111698; conditions: up to 4.4 μM, 24 h, without and with metabolic activation; cited from earlier work
[10] = tested on: certain target cancer cells; design: method as in ref 56, 57 (DAS), 58, 59 (REG); conditions: in vitro; 57 (DAS), 58, 59 (REG); cited from earlier work
[11] = MTS assay, viability of ZFL cells; assay type: cell-based, zebrafish; conditions: zebrafish, ZFL cells (zebrafish liver cell line), ZFL cells, read-out: IC50 for TKIs Cytotoxicity (95% Confidence Interval)
Description: as §1

Row | SMILES | MNi frequency [1] | percentage of PI negative cells [2] | viability of the ZFL cells [3] | cytotoxic effects in ZFL cells (MTS) [3] | concentration that induced G0/G1 cell cycle arrest with decrease in number of cells in S phase [4] | effect on cell cycle progression [4] | mutagenicity/genotoxicity (chromosomal damage/genomic instability) [7] | concentration with statistically significant increase in percentage of tail DNA [8] | other results
1 | C#Cc1cccc(Nc2ncnc3cc(OCCOC)c(OCCOC)cc23)c1 [ERL, erlotinib] | did not significantly increase | did not significantly decrease | did not affect cell viability | no cytotoxic effect | 40 µM | arrest of the cell cycle in the G0/G1 phase | not mutagenic/genotoxic |  | reduction in viability (H520 and H1975 cells): 20%; mitotic index and cytological aberrations (Alium cepa): decreased the mitotic index and increased cytological aberrations; cytotoxicity (HepG2 and HepaRG cells): only slight cytotoxicity; concentration inducing apoptosis (HepG2 cells): 25 µM; concentration inducing cell cycle arrest (HepG2 cells): 10 µM; percentage of tail DNA [5]: increases the percentage of tail DNA; MNi formation [6]: did not induce MNi formation; concentration with cell cycle arrest (Huh-7 cells): 25 µM; DNA damage (alkaline comet assay) (A549 cells): did not induce DNA damage
2 | Cc1cn(-c2cc(NC(=O)c3ccc(C)c(Nc4nccc(-c5cccnc5)n4)c3)cc(C(F)(F)F)c2)cn1 [NIL, nilotinib] | did not significantly increase |  | did not affect cell viability | no cytotoxic effects |  |  |  | ≥ 2000 nM | decrease of the percentage of PI negative cells ([2]; highest concentration tested, 72 h): approximately 20%; decrease of survival (H295R cells): 62.9%
3 | CNC(=O)c1cc(Oc2ccc(NC(=O)Nc3ccc(Cl)c(C(F)(F)F)c3)c(F)c2)ccn1 [REG, regorafenib] | did not significantly increase | did not significantly decrease | reduced |  | 3 µM | arrest of the cell cycle in the G0/G1 phase | not mutagenic/genotoxic | ≥ 800 nM | MNi formation [9]: did not induce MNi formation; DNA damage assessed by comet assay [10]: induce DNA damage; IC50 at 24 h ([11]; 24 h exposure): 5.64 µM; IC50 at 48 h ([11]; 48 h exposure): 4.54 µM; IC50 at 72 h ([11]; 72 h exposure): 3.59 µM
4 | COc1cc([C@@H]2c3cc4c(cc3[C@@H](O[C@@H]3O[C@@H]5CO[C@@H](C)O[C@H]5[C@H](O)[C@H]3O)[C@H]3COC(=O)[C@H]23)OCO4)cc(OC)c1O [etoposide, Etoposide] |  |  |  |  |  |  |  |  | MNi in representative dot plot ([1]; 0.17 μM): increased amount of MNi
